Results as given in patent publication US10450295B2, “Method of using an indolinone molecule and derivatives for inhibiting liver fibrosis and hepatitis” (Acclaim BioMed USA LLC, priority 2013, dated 2019).
Entries after “also recorded” stand apart in the source; their conditions may differ.

Columns and labels:
human HSC's (LX-2) = assay: HSC morphology under the microscope; type: cell-based
Experimental: In the control cultures, the HSCs appeared morphologically to be like fibroblasts (FIG. 1A). In the presence of Hesperadin, the HSC cells increased in size 2-3 folds (FIGS. 1B and C). The effect of Hesperadin on HSC growth was examined. […] The cell-cycle progression of HSCs is further analyzed in the presence of 0.625 μM Hesperadin using Flow Cytometry. […] Human Hepatic Stellate cells (LX-2 cell line) (HSCs) were obtained from the Key Lab of Regenerative Medicine, Jinan University, Guangzhou, China, which were maintained in Dulbecco's Modified Eagle Medium (DMEM)+10% fetal calf serum and penicillin-streptomycin (100 unit/ml and 0.1 mg/ml, respectively), in 5% CO2 at 37° C. inside a humidified cell incubator. The culture medium was changed every three days. To test the effects of small molecule Hesperadin on the mouse and human HSCs, the cultures were treated with 0.625 μM of Hesperadin for 48 hrs. The cultures were then fixed in ice cold 70% ethanol and incubated in phosphate buffered saline with RNase (0.25 mg/ml), Propidium iodide dye (40 μg/ml) and 0.1% Triton X for an hour at room temperature. […] The proliferation of HSCs was also evaluated by the MTT staining assay with 3-(4,5-Dimethylthiazol-2-yl)-2,5-diphenyltetrazolium bromide). […] The absorbance (at 570 nm) was measured using a BIORAD 3550 Microplate Reader. […]

[1] = system: collagen type I in fibrotic liver; assay: Carbon tetrachloride liver fibrosis mouse model, immunohistological staining for collagen type I; type: in vivo, mice
Experimental: The ability of Hesperadin to inhibit collagen expressions in a liver fibrosis mouse model was then examined. To induce fibrosis in the liver, mice were injected with carbon tetrachloride, twice a week, for 6 weeks. In control group of mice, they were injected with DMSO/saline, twice a week for 2 weeks. For the experimental group of mice, they were injected with either 50 or 500 μg/kg Hesperadin after chronic carbon tetrachloride treatment. […] In contrast, following chronic carbon tetrachloride treatment, collagen type I was expressed strongly at the lobules, the portal areas, the lining of the sinusoid and around the central veins (FIGS. 12A and 12B). […] In mice of carbon tetrachloride treatment alone, collagen type I was strongly expressed in the periphery of the hepatic sinusoids. Forty female ICR mice (6 weeks old) were acquired from the MOE Key laboratory for Regenerative Medicine. To induce liver fibrosis, the mice were injected i.p. with carbon tetrachloride (1.65 ml/kg body weight suspended in 0.1 ml olive oil) twice per week for a total of 6 weeks. In the control group, mice received carbon tetrachloride injection for 6 weeks followed by DMSO or saline injections, twice a week, for two weeks. In the experimental group, mice received carbon tetrachloride for 6 weeks followed by i.p. injections of 50 μg/kg or 500 μg/kg Hesperadin, twice a week, for two weeks. […] The extent of fibrosis was scored according to Zhou, et al. (5): 1=thickened perivenular collagen and a few thin collagen septa; 2=thin septa with incomplete bridging between portal regions; 3=thin septa and extensive bridging; 4=thickened septa with complete bridging of portal regions and a nodular appearance. Collagen content was measured with a Universal Imaging (Chester, Pa.) analysis system. Briefly, trichrome-stained liver sections were analysed using an Axioskope 50 microscope (CarlZeiss Lab). […] Collagen accumulation was calculated as the percentage of the total field at ×40 magnifications that was stained blue. The arrangement and morphology of the hepatocytes will also be examined and recorded. […]

[2] = system: human liver stellate cells; assay: Cell death assay (MTT assay) SAR screening of Hesperadin related derivatives; type: cell-based; conditions: FIGS. 14A through 14T
Experimental: Human Hepatic Stellate cells (LX-2 cell line) (HSCs) were obtained from the Key Lab of Regenerative Medicine, Jinan University, Guangzhou, China, which were maintained in Dulbecco's Modified Eagle Medium (DMEM)+10% fetal calf serum and penicillin-streptomycin (100 unit/ml and 0.1 mg/ml, respectively), in 5% CO2 at 37° C. inside a humidified cell incubator. The culture medium was changed every three days. To test the effects of small molecule Hesperadin on the mouse and human HSCs, the cultures were treated with 0.625 μM of Hesperadin for 48 hrs. The cultures were then fixed in ice cold 70% ethanol and incubated in phosphate buffered saline with RNase (0.25 mg/ml), Propidium iodide dye (40 μg/ml) and 0.1% Triton X for an hour at room temperature. For cell cycle analysis, the Propidium iodide stained cells were examined using a flow cytometer (“BD LSRFortessa Cell Analyzer”). The proliferation of HSCs was also evaluated by the MTT staining assay with 3-(4,5-Dimethylthiazol-2-yl)-2,5-diphenyltetrazolium bromide). HSCs were plated at 1×10^4 cells/ml and culture overnight. Hesperadin (in serial dilutions) was then added into the culture medium for 48 hours. This was followed by addition of MTT (250 μg/ml) for a further 4 hours. The medium was eluted and the formazan crystal was dissolved in 100 μL of DMSO. The absorbance (at 570 nm) was measured using a BIORAD 3550 Microplate Reader. […]

Question: Which “increase in HSC cell size” value (human HSC's (LX-2); 0.625 or 1.25 μM, 48 hrs) does the source give for `CCS(=O)(=O)Nc1ccc2c(c1)/C(=C(/Nc1ccc(CN3CCCCC3)cc1)c1ccccc1)C(=O)N2` [Hesperadin, (Z)—N-(2-oxo-3-(Phenyl(4-(piperidin-1-ylmethyl)phenylamino)methylene)indolin-5-yl)ethanesulfonamide] here?
Answer: Its value is 2-3 folds.

Question: What about the “increase in HSC size (FIG. 1)” value (human HSC's (LX-2); 0.65 and 1.25 μM, 24 hours) of the same compound?
Answer: The value was “several folds”.

Question: And the “collagen type I in histological liver sections” value ([1]; 50 μg/kg i.p. twice a week for two weeks after 6 weeks CCl4, mice)?
Answer: Its value is “less collagen type I evident”.

Question: What about the “collagen type I in histological liver sections” value ([1]; 500 μg/kg i.p. twice a week for two weeks after 6 weeks CCl4, mice) of the same compound?
Answer: Its value is “less collagen type I evident; also recorded: significantly less collagen staining”.

Question: What about the “quantified intensity of collagen type I staining” value ([1]; 500 μg/kg, FIG. 13, p<0.05) of the same compound?
Answer: Its value is “significant reduction in collagen type I production and expression”.

Question: What about the “percentage of inhibition, cell death assay (MTT), relative potency” value [2] of the same compound?
Answer: Its value is “most potent derivative”.
